Experimental data as given in article PMC9516332 (Frontiers in Oncology, 2022).
pIC50: −log10 of the molar value. Read-outs that look alike come from different tables or passages of the source.

System: 134 cancer cell lines
Test: Cell viability assay (ATPlite, 72 hours), IC50 on cancer cell line panel

pIC50 (Homo sapiens, MKN-45, read-out: IC50 in cell proliferation assay, MKN45 cell line (MET amplification)): 5.63
pIC50 (Homo sapiens, MOLM-13, read-out: IC50 in cell proliferation assay, MOLM-13 cell line (FLT3 ITD)): 8.40
pIC50 (Homo sapiens, MOLT-4, read-out: IC50 in cell proliferation assay, MOLT-4 cell line): 5.23
pIC50 (Homo sapiens, MV4-11, read-out: IC50 in cell proliferation assay, MV4-11 cell line (FLT3 ITD)): 7.85
pIC50 (Homo sapiens, MeWo, read-out: IC50 in cell proliferation assay, MeWo cell line): 4.55
pIC50 (Homo sapiens, NCCIT, read-out: IC50 in cell proliferation assay, NCC-IT cell line): 4.98
pIC50 (Homo sapiens, NCI-H82, read-out: IC50 in cell proliferation assay, cell line NCI-H82): < 4.50
pIC50 (Homo sapiens, NCI-H460, read-out: IC50 in cell proliferation assay, NCI-H460 cell line): 4.96
pIC50 (Homo sapiens, NCI-H661, read-out: IC50 in cell proliferation assay, NCI-H661 cell line): 5.49
pIC50 (Homo sapiens, NCI-H716, read-out: IC50 in cell proliferation assay, cell line NCI-H716 (FGFR2-COL14A1)): 5.27
pIC50 (Homo sapiens, NCI-H1650, read-out: IC50 in cell proliferation assay, NCI-H1650 cell line (EGFR exon19del)): 4.96
pIC50 (Homo sapiens, NCI-H1975, read-out: IC50 in cell proliferation assay, NCI-H1975 cell line (EGFR p.L858R + p.T790M)): 5.11
pIC50 (Homo sapiens, NCI-H2228, read-out: IC50 in cell proliferation assay, NCI-H2228 cell line (EML4-ALK)): 4.86
pIC50 (Homo sapiens, OVCAR-3, read-out: IC50 in cell proliferation assay, cell line OVCAR-3): 6.21
pIC50 (Homo sapiens, PFSK-1, read-out: IC50 in cell proliferation assay, cell line PFSK-1): 4.88
pIC50 (Homo sapiens, RL95-2, read-out: IC50 in cell proliferation assay, cell line RL95-2 (EGFR p.A289V)): 5.44
pIC50 (Homo sapiens, RPMI-7951, read-out: IC50 in cell proliferation assay, cell line RPMI-7951 (BRAF p.V600E)): 5.55
pIC50 (Homo sapiens, RS4-11, read-out: IC50 in cell proliferation assay, cell line RS4;11): 5.04
pIC50 (Homo sapiens, Rec1, read-out: IC50 in cell proliferation assay, cell line REC-1): 4.84
pIC50 (Homo sapiens, SHP77, read-out: IC50 in cell proliferation assay, cell line SHP-77): < 4.50
pIC50 (Homo sapiens, SK-BR-3, read-out: IC50 in cell proliferation assay, cell line SK-BR-3 (ERBB2 amplification)): 5.63
pIC50 (Homo sapiens, SK-N-AS, read-out: IC50 in cell proliferation assay, cell line SK-N-AS): < 4.50
pIC50 (Homo sapiens, SK-N-FI, read-out: IC50 in cell proliferation assay, cell line SK-N-FI): < 4.50
pIC50 (Homo sapiens, SK-N-MC, read-out: IC50 in cell proliferation assay, cell line SK-N-MC): 4.91
pIC50 (Homo sapiens, SK-N-SH, read-out: IC50 in cell proliferation assay, cell line SK-N-SH (ALK p.F1174L)): 4.90
pIC50 (Homo sapiens, SNU-5, read-out: IC50 in cell proliferation assay, cell line SNU-5 (MET amplification)): 4.95
pIC50 (Homo sapiens, SNU-16, read-out: IC50 in cell proliferation assay, cell line SNU-16 (FGFR2 amplification)): < 4.50
pIC50 (Homo sapiens, SNU-C2B, read-out: IC50 in cell proliferation assay, cell line SNU-C2B (EGFR p.R165Q)): 5.03
pIC50 (Homo sapiens, SU-DHL-1, read-out: IC50 in cell proliferation assay, cell line SU-DHL-1 (NPM1-ALK)): 4.65
pIC50 (Homo sapiens, SU-DHL-6, read-out: IC50 in cell proliferation assay, cell line SU-DHL-6): 8.75
pIC50 (Homo sapiens, SUP-T1, read-out: IC50 in cell proliferation assay, cell line SUP-T1): 4.53
pIC50 (Homo sapiens, SW48, read-out: IC50 in cell proliferation assay, cell line SW48 (EGFR p.G719S)): 5.23
pIC50 (Homo sapiens, SW480, read-out: IC50 in cell proliferation assay, cell line SW480): 4.52
pIC50 (Homo sapiens, SW626, read-out: IC50 in cell proliferation assay, cell line SW626): 4.60
pIC50 (Homo sapiens, SW780, read-out: IC50 in cell proliferation assay, cell line SW780 (FGFR3-BAIAP2L1)): < 4.50
pIC50 (Homo sapiens, SW837, read-out: IC50 in cell proliferation assay, cell line SW837): 4.59
pIC50 (Homo sapiens, SW872, read-out: IC50 in cell proliferation assay, cell line SW872 (BRAF p.V600E)): 4.63
pIC50 (Homo sapiens, SW900, read-out: IC50 in cell proliferation assay, cell line SW900): 5.12
pIC50 (Homo sapiens, SW948, read-out: IC50 in cell proliferation assay, cell line SW948): 4.90
pIC50 (Homo sapiens, SW982, read-out: IC50 in cell proliferation assay, cell line SW982 (BRAF p.V600E)): 5.38
pIC50 (Homo sapiens, SW-620, read-out: IC50 in cell proliferation assay, cell line SW620): 4.70
pIC50 (Homo sapiens, T98G, read-out: IC50 in cell proliferation assay, cell line T98G): 5.32
pIC50 (Homo sapiens, TCC-SUP, read-out: IC50 in cell proliferation assay, cell line TCCSUP): 4.67
pIC50 (Homo sapiens, THP-1, read-out: IC50 in cell proliferation assay, cell line THP-1): 6.82
pIC50 (Homo sapiens, U2OS, read-out: IC50 in cell proliferation assay, cell line U2OS): 5.05
pIC50 (Homo sapiens, U-87 MG, read-out: IC50 in cell proliferation assay, cell line U-87MG ATCC): 4.98
pIC50 (Homo sapiens, U-118-MG, read-out: IC50 in cell proliferation assay, cell line U-118MG): < 4.50
pIC50 (Homo sapiens, UMUC3, read-out: IC50 in cell proliferation assay, cell line UM-UC-3): 4.60
pIC50 (Hs766T, read-out: IC50 in cell proliferation assay, Hs 766T cell line): 4.73
pIC50 (L-82, read-out: IC50 in cell proliferation assay, L-82 cell line (NPM1-ALK)): 4.66
pIC50 (Rh30, read-out: IC50 in cell proliferation assay, cell line Rh30): 4.92
pIC50 (read-out: IC50 in cell proliferation assay, 11-18 cell line (EGFR p.L858R)): 4.89
pIC50 (read-out: IC50 in cell proliferation assay, Hs 852.T cell line): 4.67
pIC50 (read-out: IC50 in cell proliferation assay, JAR cell line): 6.63
pIC50 (read-out: IC50 in cell proliferation assay, cell line 5637): 4.55
pIC50 (read-out: IC50 in cell proliferation assay, cell line A-388): 4.91
pIC50 (read-out: IC50 in cell proliferation assay, cell line DB): < 4.50
pIC50 (read-out: IC50 in cell proliferation assay, cell line DEL (NPM1-ALK)): < 4.50
pIC50 (read-out: IC50 in cell proliferation assay, cell line ES-2 (BRAF p.V600E)): < 4.50
pIC50 (read-out: IC50 in cell proliferation assay, cell line PA-1): 4.97
pIC50 (read-out: IC50 in cell proliferation assay, cell line PC-3): 5.24
pIC50 (read-out: IC50 in cell proliferation assay, cell line RD): 4.56
pIC50 (read-out: IC50 in cell proliferation assay, cell line RKO (BRAF p.V600E)): 5.05
pIC50 (read-out: IC50 in cell proliferation assay, cell line RL): 4.62
pIC50 (read-out: IC50 in cell proliferation assay, cell line RT-4 (FGFR3-TACC3)): 5.01
pIC50 (read-out: IC50 in cell proliferation assay, cell line SR (NPM1-ALK)): 4.85
pIC50 (read-out: IC50 in cell proliferation assay, cell line T24): 4.51
pIC50 (read-out: IC50 in cell proliferation assay, cell line TT (RET p.C634W)): < 4.50
pIC50 (read-out: IC50 in cell proliferation assay, cell line VA-ES-BJ): 5.53
SMILES: C[C@H](Nc1ncnc2nc[nH]c12)c1cc2cccc(Cl)c2c(=O)n1-c1ccccc1 [duvelisib]
